Structures are written as SMILES.

This test deals with T1, human 5-HT4(b) receptor (Homo sapiens, UniProt Q13639).
T1 construct: overexpressing the full-length human 5-HT4(b) receptor with an N-terminal FLAG tag; FLAG (N); host or cells: CHO-K1
T1 sequence (Q13639 whole entry): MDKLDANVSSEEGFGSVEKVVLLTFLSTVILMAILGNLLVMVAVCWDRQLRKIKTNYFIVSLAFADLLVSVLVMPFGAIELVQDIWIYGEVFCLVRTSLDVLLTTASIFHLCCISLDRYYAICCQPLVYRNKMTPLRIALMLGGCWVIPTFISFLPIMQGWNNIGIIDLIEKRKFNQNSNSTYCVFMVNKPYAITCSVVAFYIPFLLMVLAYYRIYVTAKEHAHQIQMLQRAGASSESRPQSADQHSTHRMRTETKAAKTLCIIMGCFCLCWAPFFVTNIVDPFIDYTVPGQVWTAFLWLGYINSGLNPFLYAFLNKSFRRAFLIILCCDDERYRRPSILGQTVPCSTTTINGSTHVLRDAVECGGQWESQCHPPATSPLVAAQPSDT
As to the kind of experiment: 5-HT4(b) agonist assay (cAMP accumulation). Type of test: cell-based. As to conditions: CHO-K1 cells overexpressing full-length human 5-HT4(b) receptor; cAMP accumulation after 30 minutes at room temperature; 1 μM 5-HT as 100% activity. How it is done:
One may determine the activity of the compounds of Formula 1 using a variety of methods, including in vitro and in vivo methods. The ability of the example compounds to activate the 5-HT4(b) receptor may be determined using the following assay.
Chinese hamster ovary (CHO-K1) cells overexpressing the full-length human 5-HT4(b) receptor with an N-terminal FLAG tag (Multispan Inc, Hayward, CA) are cultured per the manufacturer's protocol in 1:1 DMEM/F12 (Thermo Fisher, Waltham, MA) with 10% fetal bovine serum (GE Healthcare, Pittsburgh, PA) and 10 μg/mL puromycin (Thermo Fisher, Waltham, MA), and stored in frozen aliquots to be used as assay ready cells. On the day of the assay, cells are removed from frozen storage, washed two times in 1× Kreb's Ringer Buffer (Zenbio, Research Triangle Park, NC), and re-suspended to a concentration of 4×10^6 cells/mL in 1× Kreb's Ringer Buffer. Test compound (50 nL) in 100% DMSO is acoustically dispensed in low volume, white, 384-well polypropylene plates (Corning, Tewksbury, MA), followed by the addition of 4×10^4 cells per well in a total volume of 10 μL. Cells are incubated with test compound for 30 minutes at room temperature in the dark, and cAMP accumulation is measured using the Cisbio HiRange cAMP assay kit (Bedford, MA) per the manufacturer's protocol. Anti-cAMP antibody and d2-cAMP tracer reagents diluted in lysis/detection buffer are incubated in the dark for 1 hour, and results are measured on a Pherastar plate reader (BMG Labtech, Ortenberg, Germany). Data are normalized using 1 μM 5-HT (Sigma Aldrich, St. Louis, MO) as 100% activity, and DMSO alone as 0% activity.
The ability of the example compounds to activate the 5-HT4(b) receptor was evaluated using the assay described in the Biological Activity section. Table 1, below, lists EC50 from the 5-HT4(b) agonist assay for each of the example compounds, where smaller EC50 values represent higher potency.
As a reminder, the EC50 is the midpoint of the concentration-response curve. A high value points to weaker potency. In the case of `COc1cc(N)c(Cl)cc1C(=O)N[C@@H]1CCN(CCCCCC(=O)NCCOCCOCCOCCC(=O)NC[C@H](O)[C@@H](O)[C@H](O)[C@H](O)CO)C[C@@H]1OC` [Example 6, 4-amino-5-chloro-2-methoxy-N-((3S,4R)-3-methoxy-1-((22S,23R,24R,25R)-22,23,24,25,26-pentahydroxy-6,19-dioxo-10,13,16-trioxa-7,20-diazahexacosyl)piperidin-4-yl)benzamide], the response was half-maximal at 22.2 nM (EC50).

`Nc1c(Cl)cc(C(=O)NC2CCN(CCCCCC(=O)N[C@@H]3CCCN(CCCCCC(=O)NC[C@H](O)[C@@H](O)[C@H](O)[C@H](O)CO)C3)CC2)c2c1CCO2` [Example 29, 4-amino-5-chloro-N-(1-(6-oxo-6-(((R)-1-(6-oxo-6-(((2S,3R,4R,5R)-2,3,4,5,6-pentahydroxyhexyl)amino)hexyl)piperidin-3-yl)amino)hexyl)piperidin-4-yl)-2,3-dihydrobenzofuran-7-carboxamide]: the EC50 came out at 4.4 nM.

In the case of `Nc1c(Cl)cc(C(=O)NC2CCN(CCCCCC(=O)NCCCC(=O)NC[C@H](O)[C@@H](O)[C@H](O)[C@H](O)CO)CC2)c2c1CCO2` [Example 34, 4-amino-5-chloro-N-(1-(6-oxo-6-((4-oxo-4-(((2S,3R,4R,5R)-2,3,4,5,6-pentahydroxyhexyl)amino)butyl)amino)hexyl)piperidin-4-yl)-2,3-dihydrobenzofuran-7-carboxamide], the EC50 is 15.3 nM.

Turning to `COc1cc(N)c(Cl)cc1C(=O)N[C@@H]1CCN(CCCCCC(=O)NCCCCCCCC(=O)N(CCO)C[C@H](O)[C@@H](O)[C@H](O)[C@H](O)CO)C[C@@H]1OC` [Example 22, 4-amino-5-chloro-N-((3 S,4R)-1-(6-((8-((2-hydroxyethyl)((2S,3R,4R,5R)-2,3,4,5,6-pentahydroxyhexyl)amino)-8-oxooctyl)amino)-6-oxohexyl)-3-methoxypiperidin-4-yl)-2-methoxybenzamide], the EC50 was determined as 19.1 nM.

In the case of `CO[C@H]1CN(CCCCCC(=O)NCCCC(=O)NC[C@H](O)[C@@H](O)[C@H](O)[C@H](O)CO)CC[C@H]1NC(=O)c1cc(Cl)c(N)c2c1OCC2` [Example 46], the EC50 was determined as 5.9 nM.

In turn, `CO[C@H]1CN(CC2CCN(C(=O)CCCCCCCC(=O)NC[C@H](O)[C@@H](O)[C@H](O)[C@H](O)CO)CC2)CC[C@H]1NC(=O)c1cc(Cl)c(N)c2c1OCC2` [Example 41, 4-amino-5-chloro-N-((3S,4R)-3-methoxy-1-((1-(9-oxo-9-(((2S,3R,4R,5R)-2,3,4,5,6-pentahydroxyhexyl)amino)nonanoyl)piperidin-4-yl)methyl)piperidin-4-yl)-2,3-dihydrobenzofuran-7-carboxamide] had a 50% effective concentration (EC50) of 1.2 nM.

Compound `COc1cc(N)c(Cl)cc1C(=O)N[C@@H]1CCN(CCCCCC(=O)NCCCCCC(=O)NC[C@H](O)[C@@H](O)[C@H](O)[C@H](O)CO)C[C@@H]1OC` [Example 3, 4-amino-5-chloro-2-methoxy-N-((3S,4R)-3-methoxy-1-(6-oxo-6-((6-oxo-6-(((2S,3R,4R,5R)-2,3,4,5,6-pentahydroxyhexyl)amino)hexyl)amino)hexyl)piperidinyl)benzamide] returned a concentration for a half-maximal effect (EC50) of 22.3 nM.

On to `COc1cc(N)c(Cl)cc1C(=O)N[C@@H]1CCN(CCCCCC(=O)N(C)[C@@H]2CCCN(CCCCCCCC(=O)NC[C@H](O)[C@@H](O)[C@H](O)[C@H](O)CO)C2)C[C@@H]1OC` [Example 14, 4-amino-5-chloro-2-methoxy-N-((3S,4R)-3-methoxy-1-(6-(methyl((R)-1-(8-oxo-8-(((2S,3R,4R,5R)-2,3,4,5,6-pentahydroxyhexyl)amino)octyl)piperidin-3-yl)amino)-6-oxohexyl)piperidin-4-yl)benzamide], for which it took 16.8 nM to reach a half-maximal effect (EC50).

As for `COc1cc(N)c(Cl)cc1C(=O)N[C@@H]1CCN(CCCCCC(=O)NCCCCCCCC(=O)N(CCP(=O)(O)O)C[C@H](O)[C@@H](O)[C@H](O)[C@H](O)CO)C[C@@H]1OC` [Example 26, (2-(8-(6-((3S,4R)-4-(4-amino-5-chloro-2-methoxybenzamido)-3-methoxypiperidin-1-yl)hexanamido)-N-((2S,3R,4R,5R)-2,3,4,5,6-pentahydroxyhexyl)octanamido)ethyl)phosphonic acid], the half-maximal effective concentration (EC50) was found to be 131 nM.

Compound `COc1cc(N)c(Cl)cc1C(=O)N[C@@H]1CCN(CC(C)CCCC(=O)NCCCCCCCC(=O)NC[C@H](O)[C@@H](O)[C@H](O)[C@H](O)CO)C[C@@H]1OC` (stereo partly drawn) [Example 19, 4-amino-5-chloro-2-methoxy-N-((3S,4R)-3-methoxy-1-(2-methyloxo-6-((8-oxo-8-(((2S,3R,4R,5R)-2,3,4,5,6-pentahydroxyhexyl)amino)octyl)amino)hexyl)piperidin-4-yl)benzamide] showed an EC50 of 77 nM.

The compound `COc1cc(N)c(Cl)cc1C(=O)N[C@@H]1CCN(CCCCCC(=O)NCCOCCOCCC(=O)NC[C@H](O)[C@@H](O)[C@H](O)[C@H](O)CO)C[C@@H]1OC` [Example 7, 4-amino-5-chloro-2-methoxy-N-((3S,4R)-3-methoxy-1-((19S,20R,21R,22R)-19,20,21,22,23-pentahydroxy-6,16-dioxo-10,13-dioxa-7,17-diazatricosyl)piperidin-4-yl)benzamide] returned an EC50 of 23.4 nM.

`COc1cc(N)c(Cl)cc1C(=O)N[C@@H]1CCN(CCCCCC(=O)N(C)C2CCN(CCCCCC(=O)NC[C@H](O)[C@@H](O)[C@H](O)[C@H](O)CO)CC2)C[C@@H]1OC` [Example 11, 4-amino-5-chloro-2-methoxy-N-((3S,4R)-3-methoxy-1-(6-(methyl(1-(6-oxo-6-(((2S,3R,4R,5R)-2,3,4,5,6-pentahydroxyhexyl)amino)hexyl)piperidinyl)amino)-6-oxohexyl)piperidin-4-yl)benzamide] gave an EC50 of 14.2 nM.

Consider `Nc1c(Cl)cc(C(=O)NCC2CCN(CC3CCN(CCCCCCC(=O)NC[C@H](O)[C@@H](O)[C@H](O)[C@H](O)CO)CC3)CC2)c2c1CCO2` [Example 37, 4-amino-5-chloro-N-((1-((1-(7-oxo-7-(((2S,3R,4R,5R)-2,3,4,5,6-pentahydroxyhexyl)amino)heptyl)piperidin-4-yl)methyl)piperidin-4-yl)methyl)-2,3-dihydrobenzofuran-7-carboxamide], for which the midpoint of the response, the EC50, lay at 2 nM.

For the compound `Nc1c(Cl)cc(C(=O)NC2CCN(CCCCCC(=O)N[C@@H]3CCCN(CCCCCCCC(=O)NC[C@H](O)[C@@H](O)[C@H](O)[C@H](O)CO)C3)CC2)c2c1CCO2` [Example 28, 4-amino-5-chloro-N-(1-(6-oxo-6-(((R)-1-(8-oxo-8-(((2S,3R,4R,5R)-2,3,4,5,6-pentahydroxyhexyl)amino)octyl)piperidin-3-yl)amino)hexyl)piperidin-4-yl)-2,3-dihydrobenzofuran-7-carboxamide], the half-maximal effective concentration (EC50) turned out to be 3.8 nM.

`Nc1c(Cl)cc(C(=O)NC2CCN(CCCCCC(=O)NC3CCN(CCCCCC(=O)NC[C@H](O)[C@@H](O)[C@H](O)[C@H](O)CO)CC3)CC2)c2c1CCO2` [Example 31, 4-amino-5-chloro-N-(1-(6-oxo-6-((1-(6-oxo-6-(((2S,3R,4R,5R)-2,3,4,5,6-pentahydroxyhexyl)amino)hexyl)piperidin-4-yl)amino)hexyl)piperidin-4-yl)-2,3-dihydrobenzofuran-7-carboxamide] displayed an EC50 of 6.1 nM.

For the origin of these results see patent publication US12653815B2, “Luminally-acting N-(piperidin-4-yl)benzamide derivatives” (Takeda Pharmaceutical Company Limited, priority 2020, dated 2026).
